Patent US7750003B2, “Compounds-943” (AstraZeneca AB, priority 2006, dated 2010)

Target: recombinant mTOR (FLAG-tagged, residues 1362-2549) (Homo sapiens, UniProt P42345)
Experiment: In vitro mTOR kinase assay (Test (a), AlphaScreen)
Format: biochemical
Settings: ATP 20 μM, read-out: Test (a): IC50 versus mTOR kinase
Method in brief: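 AlphaScreen read-out: a phospho-T389 p70 S6K antibody on acceptor beads captures the phosphorylated biotin-peptide on donor beads, with signal loss indicating inhibition.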

Sequence of recombinant mTOR (FLAG-tagged, residues 1362-2549) (P42345 1362-2549): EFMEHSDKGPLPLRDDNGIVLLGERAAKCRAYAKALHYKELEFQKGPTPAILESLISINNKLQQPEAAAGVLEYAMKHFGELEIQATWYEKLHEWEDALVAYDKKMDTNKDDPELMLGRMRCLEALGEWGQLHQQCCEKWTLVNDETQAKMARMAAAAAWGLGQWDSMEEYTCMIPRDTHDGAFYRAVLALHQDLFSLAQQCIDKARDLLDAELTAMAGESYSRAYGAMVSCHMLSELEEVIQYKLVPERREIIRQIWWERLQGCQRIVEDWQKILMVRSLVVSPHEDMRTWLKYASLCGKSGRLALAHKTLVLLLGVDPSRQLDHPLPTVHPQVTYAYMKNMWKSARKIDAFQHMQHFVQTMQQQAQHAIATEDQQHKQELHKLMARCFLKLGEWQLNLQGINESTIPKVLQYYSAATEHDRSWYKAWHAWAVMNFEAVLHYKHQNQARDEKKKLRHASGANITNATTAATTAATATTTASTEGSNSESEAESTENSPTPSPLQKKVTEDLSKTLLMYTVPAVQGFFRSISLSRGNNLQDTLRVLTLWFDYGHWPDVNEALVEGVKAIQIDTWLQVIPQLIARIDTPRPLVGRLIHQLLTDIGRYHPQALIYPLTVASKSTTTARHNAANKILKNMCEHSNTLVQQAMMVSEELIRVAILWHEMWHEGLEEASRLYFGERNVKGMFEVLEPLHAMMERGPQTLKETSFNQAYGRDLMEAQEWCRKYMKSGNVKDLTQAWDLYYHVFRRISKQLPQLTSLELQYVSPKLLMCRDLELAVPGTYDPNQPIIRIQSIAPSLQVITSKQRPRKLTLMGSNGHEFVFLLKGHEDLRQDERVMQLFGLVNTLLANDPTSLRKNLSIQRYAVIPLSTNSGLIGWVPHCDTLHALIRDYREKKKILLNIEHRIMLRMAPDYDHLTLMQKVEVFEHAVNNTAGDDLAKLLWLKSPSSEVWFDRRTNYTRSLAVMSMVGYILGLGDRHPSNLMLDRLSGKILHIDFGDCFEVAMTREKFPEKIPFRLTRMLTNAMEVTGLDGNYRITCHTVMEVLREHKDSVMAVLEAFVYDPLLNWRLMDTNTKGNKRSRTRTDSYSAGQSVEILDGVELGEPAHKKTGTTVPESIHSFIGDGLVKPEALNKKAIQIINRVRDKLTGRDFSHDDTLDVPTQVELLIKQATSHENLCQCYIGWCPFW

## CS(=O)(=O)Cc1cc(N2CCOCC2)nc(-c2ccc(NC(=O)N3CCC(O)CC3)cc2)n1 [Example 45h, 4-hydroxy-N-[4-[4-(methylsulfonylmethyl)-6-morpholin-4-yl-pyrimidin-2-yl]phenyl]piperidine-1-carboxamide]
  IC50: 140 nM

## CN(C)CCNC(=O)Nc1ccc(-c2nc(CS(C)(=O)=O)cc(N3CCOCC3)n2)cc1 [Example 45j, 1-(2-dimethylaminoethyl)-3-[4-[4-(methylsulfonylmethyl)-6-morpholin-4-yl-pyrimidin-2-yl]phenyl]urea]
  IC50: 720 nM

## CS(=O)(=O)Cc1cc(N2CCOCC2)nc(-c2ccc(NC(=O)NCCO)cc2)n1 [Example 45k, 3-(2-hydroxyethyl)-1-[4-[4-(methylsulfonylmethyl)-6-morpholin-4-yl-pyrimidin-2-yl]phenyl]urea]
  IC50: 49 nM

## CCN(C)C(=O)Nc1ccc(-c2nc(CS(C)(=O)=O)cc(N3CCOCC3)n2)cc1 [Example 45l, 1-ethyl-1-methyl-3-[4-[4-(methylsulfonylmethyl)-6-morpholin-4-yl-pyrimidin-2-yl]phenyl]urea]
  IC50: 1100 nM

## CS(=O)(=O)Cc1cc(N2CCOCC2)nc(-c2ccc(NC(=O)N3CCCC(O)C3)cc2)n1 (centres unmarked) [Example 45m, 3-hydroxy-N-[4-[4-(methylsulfonylmethyl)-6-morpholin-4-yl-pyrimidin-2-yl]phenyl]piperidine-1-carboxamide]
  IC50: 170 nM

## CS(=O)(=O)Cc1cc(N2CCOCC2)nc(-c2ccc(NC(=O)N3CCC(S(C)(=O)=O)C3)cc2)n1 (centres unmarked) [Example 45n, 3-methylsulfonyl-N-[4-[4-(methylsulfonylmethyl)-6-morpholin-4-yl-pyrimidin-2-yl]phenyl]pyrrolidine-1-carboxamide]
  IC50: 630 nM

## CS(=O)(=O)Cc1cc(N2CCOCC2)nc(-c2ccc(NC(=O)NCCN3CCOCC3)cc2)n1 [Example 45o, 1-[4-[4-(methylsulfonylmethyl)-6-morpholin-4-yl-pyrimidin-2-yl]phenyl]-3-(2-morpholin-4-ylethyl)urea]
  IC50: 900 nM

## CC(C)(C)CNC(=O)Nc1ccc(-c2nc(CS(C)(=O)=O)cc(N3CCOCC3)n2)cc1 [Example 45p, 1-(2,2-dimethylpropyl)-3-[4-[4-(methylsulfonylmethyl)-6-morpholin-4-yl-pyrimidin-2-yl]phenyl]urea]
  IC50: 920 nM

## CS(=O)(=O)Cc1cc(N2CCOCC2)nc(-c2ccc(NC(=O)NCCCO)cc2)n1 [Example 45q, 3-(3-hydroxypropyl)-1-[4-[4-(methylsulfonylmethyl)-6-morpholin-4-yl-pyrimidin-2-yl]phenyl]urea]
  IC50: 32 nM

## CN(Cc1ccccc1)C(=O)Nc1ccc(-c2nc(CS(C)(=O)=O)cc(N3CCOCC3)n2)cc1 [Example 45r, 1-benzyl-1-methyl-3-[4-[4-(methylsulfonylmethyl)-6-morpholin-4-yl-pyrimidin-2-yl]phenyl]urea]
  IC50: 410 nM

## CCOCCNC(=O)Nc1ccc(-c2nc(CS(C)(=O)=O)cc(N3CCOCC3)n2)cc1 [Example 45s, 1-(2-ethoxyethyl)-3-[4-[4-(methylsulfonylmethyl)-6-morpholin-4-yl-pyrimidin-2-yl]phenyl]urea]
  IC50: 300 nM

## CC(CO)NC(=O)Nc1ccc(-c2nc(CS(C)(=O)=O)cc(N3CCOCC3)n2)cc1 (centres unmarked) [Example 45t, 1-(1-hydroxypropan-2-yl)-3-[4-[4-(methylsulfonylmethyl)-6-morpholin-4-yl-pyrimidin-2-yl]phenyl]urea]
  IC50: 82 nM

## CS(=O)(=O)Cc1cc(N2CCOCC2)nc(-c2ccc(NC(=O)NC3CCOCC3)cc2)n1 [Example 45u, 1-[4-[4-(methylsulfonylmethyl)-6-morpholin-4-yl-pyrimidin-2-yl]phenyl]-3-(oxan-4-yl)urea]
  IC50: 420 nM

## CS(=O)(=O)Cc1cc(N2CCOCC2)nc(-c2ccc(NC(=O)N3CCNC(=O)C3)cc2)n1 [Example 45v, [4-[4-(methylsulfonylmethyl)-6-morpholin-4-yl-pyrimidin-2-yl]phenyl]-3-oxo-piperazine-1-carboxamide]
  IC50: 1200 nM
